Patent US11319374B2, “Inhibitors of prototypic galectin dimerization and uses thereof” (INSTITUT NATIONAL DE LA RECHERCHE SCIENTIFIQUE, priority 2015, dated 2022)

Assays:
[1] = molecular target: T1, recombinant human Gal-1 (hGal-1) (Homo sapiens, UniProt P09382); assay: hGal-1 dimer disruption (galectin selectivity control), low-SDS Western blotting; format: biochemical; settings: recombinant hGal-1, FIG. 2C
T1 construct: made in house; host or cells: E. coli BL21 (DE3)
Description: Production of recombinant hGal-7 and hGal-1. Human Gal-7 cDNA was cloned into pET-22b(+) using Ndel and HindIII restriction enzymes. Human pET-Gal-1 vector was generously donated by Dr. S. Sato (McGill University, QC, Canada). The proteins were produced in E. coli BL21 (DE3) cells at 37° C. Isopropyl p-D-1-thiogalactopyranoside (IPTG) (1 mM) was added to the bacterial culture at OD600nm=0.6-0.7 and then incubated for 4 h at 37° C. to allow protein production. Bacterial pellets were resuspended in lysis buffer (0.7 mg/mL lysozyme, 10 mM Tris pH 8, 100 mM NaCl, 1 mM EDTA, 1 mM DTT and a protease inhibitor cocktail) and then incubated for 1 h at 37° C. prior to centrifugation for 30 min at 15,000×g (4° C.). The supernatant was then filtered with 500 mL bottle top filter ([…]) (Corning®, New York, N.Y., USA) and then ran through a lactose-agarose column (Sigma®, St. Louis, Mo., USA). The protein was eluted in 1 mL fractions with 150 mM lactose solution. Purified fractions were analyzed by SDS-PAGE. […]
To determine whether these peptides could inhibit the formation of the hGal-7 homodimer, recombinant hGal-7 (0.5 μM) was incubated with increasing concentrations of hGal-7(13-25), hGal-7(85-102), hGal-7(95-108) or hGal 7(129-135) and the formation of homodimers was measured. […]

[2] = system: Jurkat T cells; assay: hGal-7-induced apoptosis of Jurkat T cells, Annexin V/PI flow cytometry; format: cell-based; settings: 4 h at 37° C., FIGS. 5B and 5C
Description: Apoptosis assays with Annexin V/PI staining. Apoptosis was measured by flow cytometry using FITC-labeled Annexin V (Biolegend®, San Diego, Calif., USA) and propidium iodide. Briefly, the corresponding dilutions of recombinant hGal-7 and hGal-7(129-135) peptides were pre-incubated for 1 h at 4° C. in serum-free RPMI 1640 medium. 2.5×10^5 Jurkat cells were then harvested in the same medium and incubated with their corresponding dilutions at 37° C. for 4 h. Cells were washed once in PBS and once in binding buffer (0.01 M HEPES, 0.14 M NaCl, 2.5 mM CaCl2, pH 7.4). Cells were then incubated for 15 min with Annexin V in the dark at room temperature. A total of 400 μL of binding buffer containing 0.25 μg/mL propidium iodide was added to the cells before analysis by flow cytometry.
It was thus tested whether hGal-7(129-135) could modulate the binding of hGal-7 on Jurkat T cells, a cell model that is commonly used to test the pro-apoptotic activity of galectins. For this purpose, recombinant hGal-7 was labeled with fluorescein isothiocyante (FITC) and its binding on the surface of Jurkat T cells was measured by flow cytometry in absence or presence of increasing concentrations of hGal-7(129-135). […] The effect of hGal-7(129-135) was specific, statistically significant (FIG. 4B), and consistent with the increased number of monomers, which bind to surface glycosylated receptors through their CRDs. […]

[3] = system: Jurkat T cells; assay: hGal-7-induced apoptosis of Jurkat T cells, PARP-1 cleavage by Western blotting; format: cell-based; settings: 4 h at 37° C., serum-free RPMI, FIG. 5A
Description: Western blotting. For the apoptosis tests, whole-cell extracts were homogenized and resuspended in RIPA buffer (Thermo Fisher Scientific®, Rockford, Ill., USA) containing protease inhibitors (Roche®, Laval, QC, Canada). Equal amounts of whole-cell extracts (25 μg) were separated on SDS-PAGE and transferred onto nitrocellulose membranes (Bio-Rad Laboratories®). The membranes were first blocked with 5% milk [w/v] in TBS/0.5% Tween® 20 [v/v] for 1 h at room temperature and subsequently blotted overnight in a solution of TBS containing 3% BSA [w/v] and 0.5% Tween 20 [v/v]. The following antibodies were used: a rabbit anti-Poly-(ADP-ribose) polymerase (PARP)-1 (p25) polyclonal antibody (1:5000; Epitomics®, Burlingame, Calif., USA) and a mouse anti-β-actin (1:10000; Sigma-Aldrich®, St-Louis, Mo., USA). Secondary antibodies consisted of horseradish peroxidase-conjugated donkey anti-rabbit (GE Healthcare®, Buckinghamshire, England) and sheep anti-mouse (GE Healthcare®) IgG. […]
It was thus tested whether hGal-7(129-135) could modulate the binding of hGal-7 on Jurkat T cells, a cell model that is commonly used to test the pro-apoptotic activity of galectins. For this purpose, recombinant hGal-7 was labeled with fluorescein isothiocyante (FITC) and its binding on the surface of Jurkat T cells was measured by flow cytometry in absence or presence of increasing concentrations of hGal-7(129-135). […]

T1 sequence (P09382 2-135 limits assumed): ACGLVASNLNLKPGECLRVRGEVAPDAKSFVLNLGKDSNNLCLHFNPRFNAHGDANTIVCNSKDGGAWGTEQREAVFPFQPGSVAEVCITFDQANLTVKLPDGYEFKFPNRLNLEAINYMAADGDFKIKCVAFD

H-Leu-Asp-Ser-Val-Arg-Ile-Phe-NH2 (H-LDSVRIF-NH2; listed as Homo sapiens) [hGal-7(129-135), peptide corresponding to residues 129-135 of hGal-7]
effect on hGal-1 dimer [1]: No such effect was observed | inhibition of hGal-7-induced apoptosis, Annexin V/PI staining [2]: confirmed | inhibition of hGal-7-induced apoptosis, PARP-1 cleavage [3]: inhibited the ability of hGal-7 to induce apoptosis in Jurkat T cells
